Measured values published in US6765010B2, “Compositions and methods for enhancing analgesic potency of tramadol and attenuating its adverse side effects” (Pain Therapeutics, Inc., priority 1999, dated 2004).
“Also recorded” adds a separate entry of the source. Where two headings read alike, the source gives them in different places.

Columns and labels:
[1] = tested on: dorsal root ganglion (DRG) neurons; assay type: cell-based, mouse
mice [2] = assay: Warm-water (55° C.) tail-flick assay, antinociception; assay type: in vivo, mouse
mice [3] = assay: Acute physical dependence assay: naloxone-precipitated withdrawal jumping; assay type: in vivo, mouse; details: for effect on naloxone-precipitated withdrawal jumping: co-treatment 4 hours with 100 mg/kg morphine s.c. plus low dose antagonist
mice [4] = details: morphine 20-50 mg/kg s.c. twice daily 4 days alone or + naltrexone 10 μg/kg s.c.; n=30
mice [5] = details: at 30 minutes; n=10
human volunteers = details: yohimbine 0.1 mg/kg IV; 100 mg tramadol orally; cited from earlier work
[6] = tested on: excitatory opioid receptors on DRG neurons; assay type: cell-based, mouse
DRG neurons = assay type: cell-based, mouse

CN1CC[C@]23c4c5ccc(O)c4O[C@H]2[C@@H](O)C=C[C@H]3[C@H]1C5 [morphine]
APD during application [1]: prolonged | alteration of the APD of DRG neurons [1]: prolong the APD | peak tail-flick latencies (mice [2]; 100 mg/kg morphine alone or + 10 μg/kg naltrexone, cutoff value): 10 s | mice showing naloxone-precipitated jumping (mice [3]; 100 mg/kg morphine s.c. alone or + naltrexone 10 μg/kg, naloxone 10 mg/kg i.p. 3-4 h later, n=30): About 67% | mice showing naloxone-precipitated jumping (mice [4]): About 60% | antinociception after acute 1 mg/kg morphine, 1 day after drug withdrawal (mice [5]): 3%±2%

COC(=O)[C@@H]1[C@H]2C[C@H]3c4[nH]c5ccccc5c4CCN3C[C@@H]2CC[C@@H]1O [yohimbine]
reduction of tramadol-induced analgesia (human volunteers): ≥ 89%

O=C1CC[C@@]2(O)[C@H]3Cc4ccc(O)c5c4[C@@]2(CCN3CC2CC2)[C@H]1O5 [naltrexone]
blockade of excitatory APD prolongation by bimodally-acting opioid agonists [6]: remarkably effective in blocking excitatory APD-prolonging effects | effect on morphine's APD effects [6]: blocks both inhibitory as well as excitatory effects of morphine | selective antagonism of excitatory APD-prolonging effects at excitatory opioid receptors [6]: act selectively as antagonists; also recorded: selectively blocked | excitatory APD prolongation (supersensitivity) after chronic co-treatment (DRG neurons): did not evoke the usual excitatory APD prolongation | tolerance to inhibitory effects of opioids after chronic co-treatment (DRG neurons): no evidence of tolerance | analgesic effects of antagonist alone (mice [2]; 10 ng/kg i.p.): did not elicit analgesic effects | analgesic effects of antagonist alone (mice [2]; 0.1 μg/kg): did not elicit analgesic effects | effect on naloxone-precipitated withdrawal jumping (mice [3]): attenuates naloxone-precipitated withdrawal-jumping

C=C1CC[C@@]2(O)[C@H]3Cc4ccc(O)c5c4[C@@]2(CCN3CC2CC2)[C@H]1O5 [nalmefene]
enhancement of morphine antinociceptive potency compared with naltrexone (mice [2]; 1 ng/kg nalmefene): as effective as 10 ng/kg naltrexone | effect on morphine's antinociceptive potency (mice [2]; 3 mg/kg morphine + 1-100 ng/kg nalmefene i.p., 10 mice): enhances morphine's antinociceptive potency | attenuation of morphine dependence liability compared with naltrexone (mice [3]; 1 μg/kg nalmefene, n=10): may even be more effective than naltrexone | effect on naloxone-precipitated withdrawal jumping (mice [3]): attenuates naloxone-precipitated withdrawal-jumping
